Test results reported in US11420959B2, “DACOS type NNRTIS amino acid ester derivative, preparation method thereof, pharmaceutical composition, and application thereof” (YUNNAN UNIVERSITY, priority 2018, dated 2022).
Read-outs that look alike come from different tables or passages of the source.

How the values were obtained:
[1] = Cytotoxicity experiment (MTT method) on C8166 cells; assay type: cell-based; settings: human
Protocol: Cytotoxicity experiment: The toxicity of the compounds on C8166 cells was determined by MTT method. In a 96-well cell culture plate, the compounds were subjected to 5-fold serial dilution and 100 μL of C8166 cell suspension (4×10^5/mL) was added into each well. Three replicate wells were set for each concentration. At the same time, a cell control group without drugs and drug control groups with Zidovudine (AZT) or Nevirapine (NVP) were set. The cells were incubated at 37° C. in a 5% CO2 incubator for three days, followed by the addition of MTT solution into each well, and then the cells were incubated at 37° C. for 4 hours. 15% SDS-50% DMF was added to each well and the cells were incubated at 37° C. in a 5% CO2 incubator overnight. After mixing evenly, the OD values were measured by BIO-TEK ELx800 ELISA instrument (determination wavelength: 570 nm; reference wavelength: 630 nm).

HIV-1IIIB = assay: Syncytium inhibition experiment, C8166 cells infected with HIV-1IIIB; assay type: cell-based; settings: Human immunodeficiency virus 1, 72 h, syncytium count, three days
Protocol: The specific method was described below.
Syncytium inhibition experiment: 100 μL of C8166 cell suspension (4×10^5/mL) was inoculated into each well of a 96-well cell culture plate containing 5-fold serial dilutions of the compounds, followed by addition of HIV-1IIIB diluted supernatant (MOI=0.04). Three replicate wells were set for each serial concentration. […] The cells were incubated at 37° C. in a 5% CO2 incubator for three days. The number of the syncytia was counted in five non-overlapping fields of view by using an inverted microscope (100×). […] Calculation formula: cytopathic inhibition rate (%)=(1−number of syncytia in experimental wells/number of syncytia in control well)×100%.

[2] = due to strong hydrophobicity; cited from earlier work

Row | EC50 (HIV-1IIIB) | Compound | CC50 at 3 days [1] | CC50 at 3 days ([1]; C8166 cells, MTT, three days, read-out: CC50) | bioavailability [2]
1 | 0.004 µM | CCc1c(CC2CCCCC2)nc(SCC(=O)c2ccc(OC(=O)C(N)CCSC)cc2)[nH]c1=O (stereo not shown) [Compound I-8] | 116 µM | – | –
2 | 0.004 µM | CCc1c(CC2CCCCC2)nc(SCC(=O)c2ccc(OC(=O)C(N)Cc3c[nH]c4ccccc34)cc2)[nH]c1=O (stereo not shown) [Compound I-5] | 95.2 µM | – | –
3 | 0.012 µM | CSCCC(N)C(=O)Oc1ccc(C(=O)CSc2nc(CC3CCCCC3)c(C)c(=O)[nH]2)cc1 (stereo not shown) [Compound I-24] | 199 µM | – | –
4 | 0.01 µM | Cc1c(CC2CCCCC2)nc(SCC(=O)c2ccc(OC(=O)C(N)Cc3ccccc3)cc2)[nH]c1=O (stereo not shown) [Compound I-22] | 98.6 µM | – | –
5 | 0.008 µM | Cc1c(CC2CCCCC2)nc(SCC(=O)c2ccc(OC(=O)CN)cc2)[nH]c1=O [Compound I-23] | > 200 µM | – | –
6 | 0.004 µM | CCc1c(CC2CCCCC2)nc(SCC(=O)c2ccc(OC(=O)CN)cc2)[nH]c1=O [Compound I-1] | 138 µM | – | –
7 | – | Cc1cn([C@H]2C[C@H](N=[N+]=[N-])[C@@H](CO)O2)c(=O)[nH]c1=O [AZT, Zidovudine, reference compound] | > 749 µM | – | –
8 | 0.003 µM | CCc1c(CC2CCCCC2)nc(SCC(=O)c2ccc(OC(=O)C(N)CC(C)C)cc2)[nH]c1=O (stereo not shown) [Compound I-2] | 112 µM | – | –
9 | 0.003 µM | CSCCC(N)C(=O)Oc1ccc(C(=O)CSc2nc(CC3CCCCC3)c(C(C)C)c(=O)[nH]2)cc1 (stereo not shown) [Compound I-20] | 153 µM | – | –
10 | 0.004 µM | CC(C)c1c(CC2CCCCC2)nc(SCC(=O)c2ccc(OC(=O)C(N)Cc3c[nH]c4ccccc34)cc2)[nH]c1=O (stereo not shown) [Compound I-16] | 118 µM | – | –
11 | 0.003 µM | CCc1c(CC2CCCCC2)nc(SCC(=O)c2ccc(OC(=O)C(N)C(C)C)cc2)[nH]c1=O (stereo not shown) [Compound I-13] | 94.8 µM | – | –
12 | 0.004 µM | CCc1c(CC2CCCCC2)nc(SCC(=O)c2ccc(OC(=O)[C@@H](C)N)cc2)[nH]c1=O [Compound I-6] | 96 µM | – | –
13 | 0.004 µM | CCc1c(CC2CCCCC2)nc(SCC(=O)c2ccc(OC(=O)C(N)CC(N)=O)cc2)[nH]c1=O (stereo not shown) [Compound I-12] | 120 µM | – | –
14 | 0.004 µM | CC(C)c1c(CC2CCCCC2)nc(SCC(=O)c2ccc(OC(=O)C(N)Cc3ccccc3)cc2)[nH]c1=O (stereo not shown) [Compound I-21] | 95 µM | – | –
15 | 0.005 µM | CCc1c(CC2CCCCC2)nc(SCC(=O)c2ccc(OC(=O)C(N)CCC(N)=O)cc2)[nH]c1=O (stereo not shown) [Compound I-11] | 118 µM | – | –
16 | 0.012 µM | CCc1c(CC2CCCCC2)nc(SCC(=O)c2ccc(OC(=O)C(N)Cc3cnc[nH]3)cc2)[nH]c1=O (stereo not shown) [Compound I-10] | 199 µM | – | –
17 | 0.012 µM | CC(C)c1c(CC2CCCCC2)nc(SCC(=O)c2ccc(OC(=O)C3CCCN3)cc2)[nH]c1=O (stereo not shown) [Compound I-15] | 98.3 µM | – | –
18 | 0.004 µM | CC[C@@H](C)[C@@H](N)C(=O)Oc1ccc(C(=O)CSc2nc(CC3CCCCC3)c(C(C)C)c(=O)[nH]2)cc1 [Compound I-14] | 186 µM | – | –
19 | 0.005 µM | CCc1c(CC2CCCCC2)nc(SCC(=O)c2ccc(OC(=O)[C@H](N)[C@H](C)CC)cc2)[nH]c1=O [Compound I-3] | 134 µM | – | –
20 | 0.009 µM | CCc1c(CC2CCCCC2)nc(SCC(=O)c2ccc(OC(=O)C(N)Cc3ccccc3)cc2)[nH]c1=O (stereo not shown) [Compound I-7] | 90.1 µM | – | –
21 | – | CCc1c(CC2CCCCC2)nc(SCC(=O)c2ccccc2)[nH]c1=O [DB02] | – | – | low
22 | 0.003 µM | CC(C)c1c(CC2CCCCC2)nc(SCC(=O)c2ccc(OC(=O)CN)cc2)[nH]c1=O [Compound I-17] | 191 µM | – | –
23 | 0.003 µM | CC(C)c1c(CC2CCCCC2)nc(SCC(=O)c2ccc(OC(=O)C(N)C(C)C)cc2)[nH]c1=O (stereo not shown) [Compound I-19] | 126 µM | – | –
24 | 0.006 µM | CCc1c(CC2CCCCC2)nc(SCC(=O)c2ccc(OC(=O)C(N)CCCCN)cc2)[nH]c1=O (stereo not shown) [Compound I-9] | 101 µM | – | –
25 | 0.012 µM | CCc1c(CC2CCCCC2)nc(SCC(=O)c2ccc(OC(=O)C3CCCN3)cc2)[nH]c1=O (stereo not shown) [Compound I-4] | 95.4 µM | – | –
26 | 0.004 µM | CC(C)CC(N)C(=O)Oc1ccc(C(=O)CSc2nc(CC3CCCCC3)c(C(C)C)c(=O)[nH]2)cc1 (stereo not shown) [Compound I-18] | 97.4 µM | – | –

Row | Compound | EC50 (HIV-1IIIB) | CC50 at 3 days [1] | CC50 at 3 days ([1]; C8166 cells, MTT, three days, read-out: CC50) | bioavailability [2]
27 | Cc1ccnc2c1NC(=O)c1cccnc1N2C1CC1 [NVP, Nevirapine, reference compound] | 0.013 µM | – | 504 µM | –
